Experimental data from US20080096868A1, “1,4 Substituted Pyrazolopyrimidines as Kinase Inhibitors” (priority 2004, published 2008).

Molecular target: T1, EphB4 kinase (Homo sapiens, UniProt P54760)
T1 construct: made in house; host or cells: Sf9 or Sf21 insect cells (baculovirus)
T1 sequence (P54760 566-987): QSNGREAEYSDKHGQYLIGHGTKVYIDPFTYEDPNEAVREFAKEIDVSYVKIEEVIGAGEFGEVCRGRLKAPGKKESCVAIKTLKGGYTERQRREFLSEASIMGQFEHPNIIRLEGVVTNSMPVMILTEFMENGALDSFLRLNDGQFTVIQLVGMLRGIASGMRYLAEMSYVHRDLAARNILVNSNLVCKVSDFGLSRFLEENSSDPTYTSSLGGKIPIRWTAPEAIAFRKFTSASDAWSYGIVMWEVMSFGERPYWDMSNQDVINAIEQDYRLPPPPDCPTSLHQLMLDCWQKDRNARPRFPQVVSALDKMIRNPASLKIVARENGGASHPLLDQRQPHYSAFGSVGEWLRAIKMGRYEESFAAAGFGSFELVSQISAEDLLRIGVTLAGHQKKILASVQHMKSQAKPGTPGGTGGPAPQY
Assay: Inhibition of EphB4 kinase activity (33P incorporation into poly(Glu,Tyr), filter assay)
Assay type: biochemical
Conditions: purified GST-EphB4, 2.0-3.0 μM ATP, poly(Glu,Tyr) 4:1; read-out: IC50 (μmol/l), Inhibition of EphB4 kinase
Source text: Generation of Bac-to-Bac™ (Invitrogen Life Technologies, Basel, Switzerland) GST-fusion expression vectors: Entire cytoplasmatic coding regions of the EphB-class are amplified by PCR from cDNA libraries derived from human placenta or brain, respectively. Recombinant baculovirus are generated that express the amino acid region 566-987 of the human EphB4 receptor (SwissProt Database, Accession No. P54760). GST sequence is cloned into pFastBac1® vector (Invitrogen Life Technologies, Basel, Switzerland) and PCR amplified. cDNAs encoding EphB4-receptor domains, respectively are cloned in frame 3′prime to the GST sequence into this modified FastBac1 vector to generate pBac-to-Bac™ donor vectors. Single colonies arising from the transformation are inoculated to give overnight cultures for small scale plasmid preparation. […] By automated sequencing the inserts and approximately 50 bp of the flanking vector sequences are confirmed on both strands.
Production of viruses: Viruses for each of the kinases are made according to the protocol supplied by GIBCO if not stated otherwise. In brief, transfer vectors containing the kinase domains are transfected into the DH10Bac cell line (GIBCO) and plated on selective agar plates. Colonies without insertion of the fusion sequence into the viral genome (carried by the bacteria) are blue. Single white colonies are picked and viral DNA (bac-mid) isolated from the bacteria by standard plasmid purification procedures. Sf9 cells or Sf21 cells are then transfected in 25 cm^2 flasks with the viral DNA using Cellfectin reagent according to the protocol. […]
Protein kinase assays: The activities of protein kinases are assayed in the presence or absence of inhibitors, by measuring the incorporation of ^33P from [γ^33P]ATP into a polymer of glutamic acid and tyrosine (poly(Glu,Tyr)) as a substrate. […] Membranes are counted after drying at ambient temperature, mounting in Packard TopCount96-well frame, and addition of 10 μL/well of Microscint™ (Packard). […]

SMILES	IC50
COc1ccc(-n2ncc3c(Nc4ccccc4C)ncnc32)cc1 [Example 21, [1-(4-Methoxy-phenyl)-1H-pyrazolo[3,4-d]pyrimidin-4-yl]-o-tolyl-amine]	0.16 µmol/L
COc1ccc(-n2ncc3c(Nc4cc(F)ccc4C)ncnc32)cc1 [Example 23, (5-Fluoro-2-methyl-phenyl)-[1-(4-methoxy-phenyl)-1H-pyrazolo[3,4-d]pyrimidin-4-yl]-amine]	0.5 µmol/L
Cc1cccc(C)c1Nc1nc(CCCN(C)C)nc2c1cnn2-c1ccccc1 [Example 27, [6-(3-Dimethylamino-propyl)-1-phenyl-1H-pyrazolo[3,4-d]pyrimidin-4-yl]-(2,6-dimethyl-phenyl)-amine]	0.4 µmol/L
